Consider two molecules from patent publication US11925630B1, “6′-(2-bromophenyl)-2′-methoxy-3,4′-bipyridine-3′-carbonitrile as an antioxidant compound” (KING FAISAL UNIVERSITY, priority 2023, dated 2024).

The assay in a line: DPPH radical scavenging antioxidant test. As to conditions: 517 nm; for Inhibition (radical scavenging inhibition): 0.2 mL DPPH (0.75 mM), compound 3 μM in ethanol, 30 minutes in the dark. In kind it is biochemical. As to the method:
The antioxidant activity of 6′-(2-bromophenyl)-2′-methoxy-3,4′-bipyridine-3′-carbonitrile was investigated by 2,2-diphenyl-1-picrylhydrazyl (DPPH) in vitro tests that employ vitamin C as the positive control.
The antioxidant properties of the 6′-(2-bromophenyl)-2′-methoxy-3,4′-bipyridine-3′-carbonitrile compound were studied by adding 0.2 mL DPPH (0.75 mM)) to 6′-(2-bromophenyl)-2′-methoxy-3,4′-bipyridine-3′-carbonitrile (3 μM) (4) in ethanol. After 30 minutes of incubation in the dark, the absorbance was read against a blank at 517 nm. Ascorbic acid (vitamin C) was used as standard antioxidants (positive control). A blank sample was prepared by 0.2 mL of DPPH in 3 mL ethanol. A negative control sample was run using ethanol instead of the sample. The radical scavenging inhibition was calculated using the following equation: […]
The antioxidant activity for the synthesized compound is listed in Table 1, using Vitamin C as a reference.
In general terms: Loss of DPPH colour is used to gauge radical scavenging.

SMILES strings stand for the structures.

`O=C1O[C@H]([C@@H](O)CO)C(O)=C1O` [vit c, Ascorbic acid, reference compound]: the “Inhibition (radical scavenging inhibition)” value was determined as 74%.

Turning to `COc1nc(-c2ccccc2Br)cc(-c2cccnc2)c1C#N` [Product 4, 6′-(2-bromophenyl)-2′-methoxy-3,4′-bipyridine-3′-carbonitrile], the “Inhibition (radical scavenging inhibition)” value amounted to 50%. The “antioxidant potential compared to vitamin C (in words)” value (DPPH in vitro test, vitamin C as positive control) is listed as “high potential as an antioxidant”.
